Measurements as given in US6664058B2, “Base analogues” (Amersham Biosciences UK Limited, priority 2000, dated 2003).

System: exonuclease free Klenow fragment DNA polymerase I (EFK)
Conditions: 40 μM test compound alone or with 4 μM dNTPαS; 33P 15 mer primer / 24 mer template; one unit EFK; 37° C., 3 minutes
Method: Primer Extension Assays to Study the Incorporation of Triphosphate 5 by DNA Polymerases
A primer extension assay was used to evaluate the triphosphate 5 as a substrate for exonuclease free Klenow fragment DNA polymerase I (EFK). The assay used a ^33P 5′ end labelled 15 mer primer hybridised to a 24 mer template. The sequences of the primer and template are:
One picomole ^33P labelled primer was hybridised to 2 picomoles of template in ×2 Klenow buffer (100 mM Tris-HCl pH 7.5, 10 mM MgCl2., 10 mM 2-mercaptoethanol) To this was added either 4 μM dNTPαS or 40 μM (test compound 5c) or a mixture of 4 μM dNTPαS and 40 μM (test compound). One unit EFK and 20 mU inorganic pyrophosphatase were used per reaction. Primer alone, primer plus template plus enzyme controls were also carried out. The reactions were incubated at 37° C. for 3 minutes. Reactions were then stopped by the addition of formamide/EDTA stop solution. Reaction products were separated on a 20% polyacrylamide 7M urea gel and the product fragments sized by comparison with the labelled primer and the products of extensions in the presence of 4 μM dNTPαS after exposure to Kodak Biomax autoradiography film.

Cc1cc2c(nn1)NC(=O)N([C@H]1C[C@H](O)[C@@H](COP(=O)(O)OP(=O)(O)OP(=O)(O)O)O1)C2 [compound 5, 6-(β-D-2-Deoxyribofuranosyl)-5-hydro-3-methyl-8H-pyrimido[4,5-c][1,2]pyridazin-7-one-5′-triphosphate]
natural nucleotide in place of which the test compound is incorporated: incorporated in place of dTTP
